Laboratory results: PubChem BioAssay (NCI)
“And” between values parts separate entries of the source, which are not always exact repeats. Identical values can stand only once.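 Exposure lasted 48 hours, with cells grown in 96-well plates and compounds tested at five concentrations. GI50: concentration for 50% inhibition of growth. TGI marks complete inhibition of growth.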

Tests used:
Assay in all cases: DTP human tumour cell line panel, 48 h
HOP-62 NSCLC = system: HOP-62 NSCLC
HCT-116 colon = system: HCT-116 colon
NCI-H23 lung = system: NCI-H23 lung
SK-OV-3 ovarian = system: SK-OV-3 ovarian
NCI-H460 lung = system: NCI-H460 lung
SK-MEL-5 melanoma = system: SK-MEL-5 melanoma
U251 CNS = system: U251 CNS
COLO 205 colon = system: COLO 205 colon
PC-3 prostate = system: PC-3 prostate
ACHN renal = system: ACHN renal

SMILES | TGI (HOP-62 NSCLC) | GI50 (HCT-116 colon) | TGI (HCT-116 colon) | GI50 (NCI-H23 lung) | TGI (NCI-H23 lung) | TGI (SK-OV-3 ovarian) | TGI (NCI-H460 lung) | TGI (SK-MEL-5 melanoma) | GI50 (U251 CNS) | TGI (U251 CNS) | GI50 (COLO 205 colon) | TGI (COLO 205 colon) | TGI (PC-3 prostate) | TGI (ACHN renal) | GI50 (SK-MEL-5 melanoma)
C=C1C(=O)O[C@@H]2OC3(C)CCC4C(C)CCC1C42OO3 (stereo partly specified) | 36.7 µM | 2.47 µM | 10.2 µM and 3.52 µM | 7.77 µM | 22 µM and 17.5 µM | 34.7 µM | 8.04 µM and 5.58 µM | 17.2 µM | 8.18 µM | 21.2 µM and 16.8 µM | 3.99 µM | 12.4 µM and 10.8 µM | – | – | –
Cc1ccc(C(=O)C2=CN=C3C(=O)N(c4ccccc4)N(C)C3(C)C2=N)cc1 (stereo unspecified) | – | – | > 100 µM | – | > 100 µM | > 100 µM | > 100 µM | > 100 µM | – | > 100 µM | – | > 100 µM | > 100 µM | > 100 µM | –
C/C(=N\NC(=O)c1cccnc1)c1cccc(/C(C)=N/NC(=O)c2cccnc2)n1.CC(=O)[O-].CC(=O)[O-].[Zn+2] | 65.6 µM | 1.68 µM | > 100 µM | – | > 67 µM | > 100 µM | > 100 µM | > 28.6 µM | – | > 100 µM | 0.904 µM | > 100 µM | – | > 68 µM | 12.9 µM
COc1ccc(/C=N/n2cnc3c(c2=O)S/C(=C2/SC(=S)N(c4ccc(C)cc4)C2=O)N3c2ccccc2)cc1 | 70.9 µM | – | > 100 µM | – | – | > 100 µM | > 100 µM | – | – | – | – | > 100 µM | – | > 100 µM | –
CC1(C)OCC(COC(=O)NCn2cc(-c3ccccc3)nn2)O1 (stereo unspecified) | > 100 µM | – | > 100 µM | – | > 100 µM | – | > 100 µM | > 100 µM | – | > 100 µM | – | > 100 µM | > 100 µM | > 100 µM | –
O=S(=O)(O)c1cc(Nc2ccnc3ccccc23)c2c(S(=O)(=O)O)cc(S(=O)(=O)O)cc2c1 | > 100 µM | – | > 100 µM | – | > 100 µM | > 100 µM | > 100 µM | > 100 µM | – | > 100 µM | – | > 100 µM | > 100 µM | – | –
COc1ccc2c(c1)CC1(O)COc3cc(OC)ccc3C1O2 (stereo unspecified) | > 100 µM | – | > 100 µM | – | > 100 µM | > 100 µM | – | > 100 µM | – | > 100 µM | – | > 100 µM | > 100 µM | > 100 µM | –
COC(=O)[C@@]12OC[C@]34C([C@@H](O)C1O)[C@@]1(C)CC(=O)C(O)=C(C)C1C[C@H]3OC(=O)[C@H](OC(=O)/C=C(/c1ccccc1)C(F)(F)F)[C@H]42 (stereo partly specified) | > 25 µM | – | 12.3 µM | – | 6.73 µM | > 25 µM | 6.71 µM | 13.4 µM | – | > 25 µM | – | 21.1 µM | – | 17.5 µM | –
CCOC(=O)C1=NN(c2ccc(Cl)cc2)C2=CC(C)=NN(C)C(=S)N21 | – | – | > 100 µM | – | > 100 µM | 94.4 µM | > 100 µM | > 100 µM | – | 59.2 µM | – | > 100 µM | > 100 µM | > 100 µM | –
CCOC(=O)C1C[C@H]2CO[C@H](c3ccccc3)N2C1=O (stereo partly specified) | – | – | > 100 µM | – | > 100 µM | – | > 100 µM | > 100 µM | – | > 100 µM | – | > 100 µM | > 100 µM | > 100 µM | –
N#CCOc1cccc(C2(N3CC=CCC3)CCCCC2)c1 | > 100 µM | – | > 100 µM | – | > 100 µM | > 100 µM | – | > 100 µM | – | > 100 µM | – | > 100 µM | > 100 µM | > 100 µM | –
